The source of these data is article PMC8566969, “Comparison of viral RNA–host protein interactomes across pathogenic RNA viruses informs rapid antiviral drug discovery for SARS-CoV-2” (Cell Research, 2021).

Entries after “also recorded” stand apart in the source; their conditions may differ. Some results are limits rather than exact numbers.

Series [1] relates to SARS-CoV-2 RNA interacting human proteins. On the set-up: ACT_VALUE, ACT_TYPE ID50: unit not given here. The following applies: cited from earlier work.
Series [2] deals with isocitrate dehydrogenase (NADP(+)) 2 (IDH2). On the set-up: method as in IUPHAR/BPS Guide to PHARMACOLOGY, pubmed_id 32071674. Particulars: ref IUPHAR/BPS Guide to PHARMACOLOGY, pubmed_id 32071674; cited from earlier work.
The nature of series [3]: in vitro. The following applies: human.
Series [4] concerns EBOVΔVP30-GFP virus (strain Zaire Mayinga).
The test system is the same in series [5]. The experiment in a line: microbe, parasite or virus in culture. Particulars: Zaire ebolavirus, 72 h, read-out: IC50, EBOVΔVP30-GFP.
The next series concerns ZIKV (MR766). The experiment in a line: Antiviral assay, ZIKV in Huh7 cells (4G2 immunostaining, high-content imaging). The following applies: for IC50: Zika virus, Huh-7, 72 h, read-out: IC50, ZIKV; for SI (CC50/IC50), ZIKV: Huh7 cells.
In series [6] the test system is SARS-CoV-2 (IPBCAMS-YL01/2020). The experiment in a line: Antiviral assay, bona fide SARS-CoV-2 in Huh7.5.1 cells. Format: cell-based. Particulars: IPBCAMS-YL01/2020, human liver Huh7.5.1 cells.
For the next series, the target named is TUBB (Homo sapiens, UniProt P07437). The experiment in a line: Cellular thermal shift assay (CETSA) in A549 cells, TUBB. Format: cell-based.
Series [7] has as its system TUBB cytoskeletal networks. The experiment in a line: Immunofluorescence of the TUBB-containing cytoskeleton in Caco-2 cells. Type of series: cell-based, human. Particulars: 0.5 µM, 6 h.
In series [8] the test system is SARS-CoV-2 (IPBCAMS-YL01/2020). The experiment in a line: in vitro. The following applies: human.
Series [9] deals with SARS-CoV-2 (IPBCAMS-YL01/2020). In words: microbe, parasite or virus in culture. Particulars: Severe acute respiratory syndrome coronavirus 2, A549-ACE2, 48 h, read-out: IC50 (half maximal inhibitory concentration), SARS-CoV-2 IPBCAMS-YL01/2020.
Series [10] is described as follows: Cell viability assay (CellTiter-Glo), Huh7 cells. Particulars: human.
Another series addresses (GGCT). Details: method as in IUPHAR/BPS Guide to PHARMACOLOGY, pubmed_id 17260973. The following applies: assay_description: pKa= 9.71, ref IUPHAR/BPS Guide to PHARMACOLOGY, pubmed_id 17260973, cited from earlier work.
Series [11] in a line: in vitro. The following applies: human. The source holds these as a separate data set.
Series [12] has as its target T1, HSP90AB1 (Homo sapiens, UniProt P08238).
T1 construct: HSP90AB1 protein was detected using a specific antibody after the A549 cells were treated with Cepharanthine; endogenous in cells; host or cells: A549
In words: biochemical. Type of series: binding.

For series [13], the target named is T1, HSP90AB1. Type of series: cell-based.
In series [14] the test system is SARS-CoV-2 (IPBCAMS-YL01/2020). On the set-up: species or system hACE2 transgenic mice. The following applies: mouse, in vivo.
A further series deals with SARS-CoV-2. On the set-up: method as in PMID 32707573. The following applies: at 2.5 μM; cited from earlier work.
The test system of another series is SARS-CoV-2 virus entry. The following applies: read-out: IC50, antiviral activity in virus entry inhibitor screen; cited from earlier work.
The nature of series [15]: Solubility in water (statement in formulation method).
The target in series [16] is aldehyde dehydrogenase 2 family member (ALDH2). Details: method as in IUPHAR/BPS Guide to PHARMACOLOGY, pubmed_id 18613661. Particulars: In vitro inhibition of recombinant human mitochondrial aldehyde dehydrogenase, ref IUPHAR/BPS Guide to PHARMACOLOGY, pubmed_id 18613661, cited from earlier work.
In series [17] the test system is heat shock protein 90 alpha family class B member 1 (HSP90AB1). On the set-up: method as in earlier work. The following applies: ref IUPHAR/BPS Guide to PHARMACOLOGY (geldanamycin pubmed_id 24984936), cited from earlier work; for IC50: read-out: original_affinity_median_nm (IC50).
The mark [18] stands for this setting: read-out: original_affinity_median_nm (Ki).

T1 sequence (P08238 whole entry): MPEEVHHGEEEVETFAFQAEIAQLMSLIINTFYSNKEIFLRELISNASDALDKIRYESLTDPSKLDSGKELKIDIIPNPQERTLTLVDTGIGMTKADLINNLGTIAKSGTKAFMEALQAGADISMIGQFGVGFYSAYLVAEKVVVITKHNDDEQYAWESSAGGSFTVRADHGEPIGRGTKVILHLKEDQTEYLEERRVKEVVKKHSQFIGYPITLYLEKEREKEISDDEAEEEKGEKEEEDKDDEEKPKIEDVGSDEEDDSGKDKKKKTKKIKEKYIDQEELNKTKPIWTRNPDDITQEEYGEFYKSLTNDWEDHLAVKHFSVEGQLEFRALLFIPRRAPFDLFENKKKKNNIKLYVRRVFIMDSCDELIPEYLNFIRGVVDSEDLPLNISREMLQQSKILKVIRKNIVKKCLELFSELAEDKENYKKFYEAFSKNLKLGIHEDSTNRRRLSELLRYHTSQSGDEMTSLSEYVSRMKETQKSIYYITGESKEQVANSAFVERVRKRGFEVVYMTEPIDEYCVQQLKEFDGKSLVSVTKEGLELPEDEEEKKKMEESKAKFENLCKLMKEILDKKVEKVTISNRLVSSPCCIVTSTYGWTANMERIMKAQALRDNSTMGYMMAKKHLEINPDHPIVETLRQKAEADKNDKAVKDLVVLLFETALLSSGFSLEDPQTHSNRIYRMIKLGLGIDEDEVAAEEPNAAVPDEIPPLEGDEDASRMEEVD
Chain of TUBB (P07437 whole entry): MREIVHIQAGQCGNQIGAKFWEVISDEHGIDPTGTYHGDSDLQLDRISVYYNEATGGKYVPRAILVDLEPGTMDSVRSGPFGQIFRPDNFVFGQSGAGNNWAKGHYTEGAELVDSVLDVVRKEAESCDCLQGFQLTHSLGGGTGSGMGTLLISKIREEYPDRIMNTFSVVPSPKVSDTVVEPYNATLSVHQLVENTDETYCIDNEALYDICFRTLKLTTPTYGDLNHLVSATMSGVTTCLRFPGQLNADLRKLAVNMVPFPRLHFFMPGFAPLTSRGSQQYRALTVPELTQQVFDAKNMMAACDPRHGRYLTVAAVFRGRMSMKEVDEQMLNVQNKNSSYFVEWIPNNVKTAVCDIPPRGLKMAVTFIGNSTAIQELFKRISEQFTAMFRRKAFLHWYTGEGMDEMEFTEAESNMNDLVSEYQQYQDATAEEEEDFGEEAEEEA
Chain of TUBB (P68363 whole entry, further chain): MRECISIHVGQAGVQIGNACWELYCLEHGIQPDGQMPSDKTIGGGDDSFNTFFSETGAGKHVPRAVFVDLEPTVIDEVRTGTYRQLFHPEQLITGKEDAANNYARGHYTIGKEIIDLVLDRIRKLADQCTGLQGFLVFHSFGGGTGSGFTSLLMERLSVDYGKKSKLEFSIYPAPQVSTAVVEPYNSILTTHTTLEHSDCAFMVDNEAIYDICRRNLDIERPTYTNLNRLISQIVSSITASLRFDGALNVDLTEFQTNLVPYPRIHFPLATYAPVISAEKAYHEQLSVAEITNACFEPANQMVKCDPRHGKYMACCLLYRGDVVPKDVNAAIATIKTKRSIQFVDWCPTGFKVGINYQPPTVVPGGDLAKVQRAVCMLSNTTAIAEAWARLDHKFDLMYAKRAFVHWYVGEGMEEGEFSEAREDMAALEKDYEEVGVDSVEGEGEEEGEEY

As to `COc1cc([C@@H]2c3cc4c(cc3[C@H](O)[C@H]3COC(=O)[C@H]23)OCO4)cc(OC)c1OC` [podophyllotoxin], the “ACT_VALUE, ACT_TYPE IC50” value in [1] was 6.
For the compound `C[C@@H](Nc1nc(N[C@H](C)C(F)(F)F)nc(-c2cccc(Cl)n2)n1)C(F)(F)F` [vorasidenib], in series [2], the “assay_description (result in words)” value was “Inhibits mutant IDH2”.
In the case of `COc1cc2c(cc1OC)[C@@H]1C(=O)c3ccc4c(c3O[C@@H]1CO2)C=CC(C)(C)O4` [Deguelin], in the series “in vitro [3]”, the CC50 amounted to 34700 nM.
Regarding `CC(=O)O[C@@]12CO[C@@H]1C[C@H](O)[C@@]1(C)C(=O)[C@H](O)C3=C(C)[C@@H](OC(=O)[C@H](O)[C@@H](NC(=O)OC(C)(C)C)c4ccccc4)C[C@@](O)([C@@H](OC(=O)c4ccccc4)[C@H]21)C3(C)C` [docetaxel], the “ACT_VALUE, ACT_TYPE ID50” value in series [1] is recorded as 6.699.
Regarding `COC(=O)[C@H]1[C@@H](O)[C@@]2(O)c3c(OC)cc(O[C@@H]4O[C@@H]([C@H](O)CO)CO[C@H]4OC)cc3O[C@@]2(c2ccc(OC)cc2)[C@@H]1c1ccccc1` [Silvestrol], in series [4], the “SI (CC50/IC50), EBOVΔVP30-GFP” value came out at 0.50. For the same compound, the IC50 in series [5] is 20 nM; in the series on ZIKV (MR766), 10 nM.
`CC(=O)O[C@H]1C(=O)[C@@]2(C)[C@H]([C@H](OC(=O)c3ccccc3)[C@]3(O)C[C@H](OC(=O)[C@H](O)[C@@H](NC(=O)c4ccccc4)c4ccccc4)C(C)=C1C3(C)C)[C@]1(OC(C)=O)CO[C@@H]1C[C@@H]2O` [paclitaxel]: the “ACT_VALUE, ACT_TYPE EC50” value in series [1] is recorded as 8.05.
Take `C=C1C[C@@H]2CC[C@@]34C[C@H]5O[C@H]6[C@@H](O3)[C@H]3O[C@H](CC[C@@H]3O[C@H]6[C@H]5O4)CC(=O)C[C@@H]3[C@@H](OC)[C@@H](C[C@H](O)CN)O[C@H]3C[C@H]3O[C@@H](CC[C@@H]1O2)C[C@@H](C)C3=C` [eribulin]: the “ACT_VALUE, ACT_TYPE IC50” value in series [1] is on record as 8.23.
As to `CN1CCN(CCCN2c3ccccc3Sc3ccc(C(F)(F)F)cc32)CC1` [Trifluoperazine], in series [6], the “Antiviral effect against SARS-CoV-2 in Huh7.5.1 cells (in words)” value was “confirmed”. The “CETSA, thermal stability of TUBB” value on TUBB was “slightly affected the thermal stability of TUBB”. Moreover, the “Architecture of the TUBB cytoskeletal networks (immunofluorescence)” value in [7] is listed as “architecture of the TUBB cytoskeletal networks was disrupted”. In addition, the “SI (CC50/IC50), EBOVΔVP30-GFP” value in [4] came to 2.18. Moreover, the selectivity ratio in series [8] is 10.7. Besides, the IC50 in [9] is 3460 nM; in [5], 1790 nM; in the series on ZIKV (MR766) it was 960 nM. Also, in [10], the CC50 at 72 h turned out to be 7790 nM. In addition, in the series with ZIKV (MR766), the “SI (CC50/IC50), ZIKV” value is 8.11.
`CNC(=O)c1cc(Oc2ccc(NC(=O)Nc3ccc(Cl)c(C(F)(F)F)c3)cc2)ccn1` [Sorafenib] yielded a CC50 in “in vitro [3]” of 12900 nM.
Turning to `COP(=O)(CCC(N)C(=O)O)Oc1cccc(CC(=O)O)c1` (stereo not drawn) [GGsTop], at (GGCT), the “affinity_median (pKi)” value is listed as 3.77. Also, the Ki on (GGCT) (setting [18]) was 170000 nM.
As for `CC[C@]1(O)C[C@@H]2CN(CCc3c([nH]c4ccccc34)[C@@](C(=O)OC)(c3cc4c(cc3OC)N(C)[C@H]3[C@@](O)(C(=O)OC)[C@H](OC(C)=O)[C@]5(CC)C=CCN6CC[C@]43[C@@H]65)C2)C1` [vinblastine], the “ACT_VALUE, ACT_TYPE IC50” value in [1] is 9.
On to `CC(C)(O)CNc1nc(Nc2ccnc(C(F)(F)F)c2)nc(-c2cccc(C(F)(F)F)n2)n1` [Enasidenib, 2-Methyl-1-(4-(6-(trifluoromethyl)pyridin-2-yl)-6-(2-(trifluoromethyl)pyridin-4-ylamino)-1,3,5-triazin-2-ylamino)propan-2-ol], for which the selectivity ratio in series [8] came out at 1.17. Besides, in the series “in vitro [11]”, the CC50 was determined as 24900 nM. The IC50 in [9] was 28000 nM; in the series with ZIKV (MR766), 13500 nM.
Consider `COc1ccc2cc1Oc1ccc(cc1)C[C@H]1c3c(cc4c(c3Oc3cc5c(cc3OC)CCN(C)[C@@H]5C2)OCO4)CCN1C` [Cepharanthine], for which the “Antiviral effect against SARS-CoV-2 in Huh7.5.1 cells (in words)” value in series [6] is listed as “confirmed”. The compound further registered a Kd on HSP90AB1 [12] of 3500 nM. Further, the “CETSA target engagement, HSP90AB1” value at HSP90AB1 [13] is recorded as “targeted HSP90AB1; also recorded: bound to HSP90AB1 in cells”. Also, in series [14], the “Viral loads in the lungs vs vehicle group at 3 dpi (qPCR)” value is on record as “no obvious differences” and the “Viral loads in the lungs vs vehicle group at 5 dpi (qPCR)” value is on record as “significant reduction”. Moreover, in [14] (10 mg/kg), the “Expression level of IL6 in lung vs vehicle group” value is listed as “reduced”; the “Expression level of TNF in lung vs vehicle group” value is on record as “reduced”; the “Lung injury and inflammation (H&E staining)” value was “the extent of damage was much relieved in lung tissue”. The “SI (CC50/IC50), EBOVΔVP30-GFP” value in series [4] was found to be 12.10. Further, the inhibition ratio with SARS-CoV-2 is on record as greater than 40%. Moreover, in the series with SARS-CoV-2 virus entry, the IC50 is 1400 nM. Further, the selectivity ratio in series [8] was 18.5. The IC50 in series [9] is 1670 nM. The IC50 in [5] was 420 nM. This compound also had a CC50 at 72 h in series [10] of 24000 nM. The Solubility in water result in [15] is on record as “insoluble in water”. In addition, in the series on ZIKV (MR766), the “SI (CC50/IC50), ZIKV” value turned out to be 10.97 and the IC50 was 2190 nM.
As to `COc1cc(O)c2c(=O)c(-c3ccc(O)cc3)coc2c1` [prunetin], the “affinity_median (pKi)” value in series [16] is 6.35. In addition, the inhibition constant (Ki) in series [16] (setting [18]) is 450 nM.
As for `COC1=C2C[C@@H](C)C[C@H](OC)[C@H](O)[C@@H](C)/C=C(\C)[C@H](OC(N)=O)[C@@H](OC)/C=C\C=C(/C)C(=O)NC(=CC1=O)C2=O` [geldanamycin], in series [17], the “affinity_median (pIC50)” value is recorded as 6.55 and the IC50 is 282 nM.
Consider `CCNC(=O)c1noc(-c2cc(C(C)C)c(O)cc2O)c1-c1ccc(CN2CCOCC2)cc1` [luminespib], for which, in series [17], the “affinity_median (pIC50)” value is 8.7 and the IC50 is 2 nM.
